Values joined by “and” are separate entries in the source; they are usually repeats but may differ in a detail not shown here. Equal entries are not always repeated. Active and inactive are the calls of the source.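 How the source made its calls: active means compounds giving half or more protection of infected cells from virus-caused growth loss, again on retest; inactive means the rest.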
Test system: CEM cells HIV-1 protection, formazan growth assay
Experiment: NCI AIDS Antiviral Assay
Conditions: for IC50: measured here: growth of uninfected CEM cells
Summary of the method: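 Category rules: moderately active means at least 50% protection on retest, and confirmed active means 100% protection reproducibly. The underlying data came from a formazan growth assay in HIV-1-infected CEM cells.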

SMILES | EC50 | IC50 [µM] | outcome
C[N+](C)([O-])CCC=C1c2ccccc2CCc2ccccc21 | > 200 µM | 105 | –
O=[N+]([O-])c1ccc(C2N3CCCCC3[C@@H]3c4[nH]c5ccccc5c4CCN23)cc1 (stereo partly specified) | > 34.7 µM | > 34.7 | –
Cc1cc2c(Br)cc(Br)c(O)c2nc1C(=O)c1ccccc1 | > 4.79 µM | > 4.79 | –
Nc1nc(Cl)cc(NCC2(O)CCC2)n1 | > 200 µM | > 200 | –
COC(=O)[C@@]12CC[C@]1(C(=O)OC)C1C(C)=CC(=O)O[C@@]12C (stereo partly specified) | > 200 µM | > 200 | –
C=CCC(CCC(C)=O)(C(=O)OCC)C(=O)OCC | > 200 µM | > 200 | –
CC1CC(=O)N(N(C)C)C(C#N)(C#N)C1(C#N)C#N (stereo unspecified) | > 200 µM | 3.16 | –
O=[N+]([O-])C(C(Cl)=C(Cl)Cl)=C(N1CCCCC1)N1CCCCC1 | > 200 µM | 186 | –
C(=Nc1ccc(/C=C\c2ccnc3ccccc23)cc1)Nc1ccc(/C=C\c2ccnc3ccccc23)cc1 | > 7.59 µM | 5.62 | –
Cc1ccccc1NC(=S)Nc1ccccn1 | > 200 µM | 95.5 | –
CCN(CC)CCn1c2ccccc2c(=O)c2c(OC)ccc(OC)c21 | – | – | inactive
CN(C)c1nc(N(C)C)n2nc(-c3ccccc3[N+](=O)[O-])nc2n1 | > 21.9 µM | 0.00708 | –
CC(=O)N1CCN(C23OC4(N5CCN(C(C)=O)CC5)C5C6CC(C7C6C4C72)C53)CC1 (stereo unspecified) | > 200 µM | > 200 | –
CCOc1ccccc1NC(=O)CCC(=O)OC | > 1000 µM | > 1000 | –
O=S(=O)(O)c1cc(N=Nc2cc(S(=O)(=O)O)c3cccnc3c2O)ccc1C(O)C(O)c1ccc(N=Nc2cc(S(=O)(=O)O)c3cccnc3c2O)cc1S(=O)(=O)O (stereo unspecified) | 11.2 µM | > 200 | –
Cc1ccc(N=Nc2c(S(=O)(=O)O)cc3cc(NC(=O)Nc4ccc5c(O)c(N=Nc6ccc7cc(S(=O)(=O)O)ccc7c6)c(S(=O)(=O)O)cc5c4)ccc3c2O)cc1 | – | – | active
NC1CN(C(COCc2ccccc2)c2ccc(OCc3ccccc3)cc2)C1=O (stereo unspecified) | – | – | inactive
CN(C)/N=C1/CCC(C(F)(F)F)(C(F)(F)F)O1 | > 200 µM | 6.76 | –
Cn1cnc(N)c1S(=O)(=O)Nc1ccccc1Cl | > 562 µM | > 562 | –
C(=Nc1ccc(SSc2ccc(N=C=C(c3ccccc3)c3ccccc3)cc2)cc1)=C(c1ccccc1)c1ccccc1 | > 200 µM | > 200 | –
Nc1ccc2oc(=O)ccc2c1 | > 1260 µM | 8.91 | –
CCO/N=C(/N)c1ncn(Cc2ccccc2)c1NCC(OCC)OCC | > 661 µM | 339 | –

SMILES | EC50 | IC50 [µM] | outcome
O=C(O)CNc1cc(-c2ccccc2)nc(NCC(=O)O)n1 | – | – | inactive
Oc1cccc2cc(Br)cnc12 | > 20 µM | 5.01 | –
C[Si](C)(C)/N=C1\N2C(=NC1(C(F)(F)F)C(F)(F)F)Sc1ccccc12 | – | – | inactive
C#CCNC(Cc1cnc[nH]1)C(=O)O (stereo unspecified) | > 200 µM | > 200 | –
C[N+](C)(C)CCOP(=O)(O)OP(=O)([O-])OCC1CCC(n2ccc(N)nc2=O)O1 (stereo unspecified) | 0.575 µM and 0.178 µM | > 200 | –
NC(CSSCC(N)C(=O)c1ccccc1)C(=O)c1ccccc1 (stereo unspecified) | > 200 µM | 9.77 | –
CCCCC1(C(=O)OCC)SCCCS1 | > 75.9 µM | > 75.9 | –
OCC1CC(F)C(n2cnc3c(NC4CC4)ncnc32)O1 (stereo unspecified) | > 200 µM | > 200 | –
N#C/C(N)=C(\C#N)N=CN | > 200 µM | > 200 | –
CCC(=O)NI1OC(=O)c2ccccc21 | > 200 µM | 81.3 | –
CCOC(=O)c1nc2ccc(C(F)(F)F)cc2nc1Oc1ccc(OC)cc1 | > 200 µM | > 200 | –
CN(C)c1ccc(/C=C(\C#N)C(=O)O)cc1 | > 437 µM | 219 | –
COc1nc2c(c(O)c(C)c(=O)n2OC2OCC(OC(C)=O)C(OC(C)=O)C2OC(C)=O)c(=O)n1C (stereo unspecified) | > 132 µM | > 132 | –
O=C1CC(c2ccccc2)NN1c1ccccc1 (stereo unspecified) | – | – | inactive
O=[N+]([O-])C1=C(c2ccccc2)SC([N+](=O)[O-])=C(c2ccccc2)S1 | > 200 µM | 14.8 | –
CN1C/C(=C\C=C\c2ccccc2)C(=O)/C(=C/C=C/c2ccccc2)C1 | > 7.24 µM | > 7.24 | –
NC(=O)C(=O)C1CCC2=C(Sc3ccccc3N2)C1=O (stereo unspecified) | > 46.8 µM | > 46.8 | –
CCCCCc1cc(O)c2c3c(c(=O)oc2c1)CP(=O)(c1ccccc1)CC3 (stereo unspecified) | > 25.1 µM | 19.1 | –
COc1ccc([C@H]2CC(=O)NCCCCN2)cc1 | > 200 µM | > 200 | –
O=c1c(SCc2ccc(Cl)cc2)c(SCc2ccc(Cl)cc2)cnn1-c1ccccc1 | > 14.8 µM | 3.98 | –
CCOc1ccc(/C=C\c2ccnc3ccccc23)cc1OCC | 0.0631 µM | 38 | –
O=S(=O)(N/N=C/c1c(Cl)cccc1Cl)c1ccccc1 | – | – | inactive

SMILES | EC50 | IC50 [µM] | outcome
O=C(O)c1nc(Cl)c(Cl)[nH]c1=O | > 200 µM | 55 | –
CCOc1cnc(C(O)(c2ccccc2)c2ccccc2)o1 | 19.1 µM | 148 | –
COCn1cnc2c(=O)n(-c3ccc(OC)cc3)c(=S)n(-c3ccc(OC)cc3)c21 | > 200 µM | > 200 | –
O=C(NNc1nc2ccc(Cl)cc2s1)c1cnc2n(c1=O)CCS2 | > 200 µM | 102 | –
O=C(NCCCl)N(O)C(=O)Nc1ccccc1 | > 200 µM | 126 | –
Cc1nc2ccc(NC(=S)Nc3ccccc3)cc2c(=O)n1-c1ccccc1 | > 200 µM | > 200 | –
CC(=O)[CH-]C(C)=O.CC(=O)[CH-]C(C)=O.[CH2-]CCC.[CH2-]CCC.[Sn+4] | > 60.3 µM | 0.661 | –
CON(C)C(=O)C(C)N(Cc1ccccc1)Cc1ccccc1 (stereo unspecified) | > 83.2 µM | 33.1 | –
O=C1OC(CS(=O)(=O)c2ccccc2)CC1O (stereo unspecified) | > 200 µM | > 200 | –
CC1=NN(C(=O)CC(=O)Nc2ccc(C)cc2)C(=O)C1N=Nc1ccc(S(N)(=O)=O)cc1 (stereo unspecified) | > 0.631 µM | > 0.631 | –
O=C1NC(=O)C(=CN2C(=O)/C(=C/c3ccc(O)cc3)SC2=S)C(=O)N1 | > 200 µM | 41.7 | –
COc1cc(C(c2c(O)c3ccccc3oc2=O)c2c(O)c3ccccc3oc2=O)cc(OC)c1O | > 200 µM | 15.5 | –
O=S(=O)(O)c1ccc(SSc2ccc(S(=O)(=O)O)cc2)cc1 | > 200 µM | > 200 | –
O=C1C(Cl)=C(Cl)C(=O)N1C1C2CC3CC(C2)CC1C3 (stereo unspecified) | – | – | inactive
CCOP(=O)(OCC)/C(C#N)=C/c1ccco1 | 69.2 µM | > 200 | –
CCCCCCCCCCCCCCCC1(OC)C[N+](C)(C)CCO1 (stereo unspecified) | > 200 µM | 1 | –
Cc1c2[nH]c(c1CCC(=O)O)/C=c1\[n-]/c(c(C)c1CCC(=O)O)=C\c1[n-]c(c(C)c1C(C)O)/C=c1\[nH]/c(c(C)c1C(C)O)=C\2.[Cl][Pt+2][Cl] (stereo unspecified) | > 20.9 µM | 14.5 | –
O=Cc1c[nH]c2nccnc12 | > 380 µM | 372 | –
OCC1C(OCc2ccccc2)C(OCc2ccccc2)C(OCc2ccccc2)CN1Cc1ccccc1 (stereo unspecified) | – | – | inactive
COc1cc2c(cc1OC)C1=Cc3cc(OC)c(OC)cc3C(C)N1C=C2 (stereo unspecified) | > 355 µM | 29.5 | –
COc1cc(C2SCC(=O)N2c2ccc(Oc3ccc(Cl)cc3)c(Cl)c2)cc(OC)c1OC (stereo unspecified) | > 200 µM | 20 | –

Reference: PubChem BioAssay AID179 (DTP/NCI, 2004)
